Data on two compounds can be found in US4737504A, “5-fluoro-and 8-fluoro-trimetoquinol compounds and the processes for their preparation” (priority 1986, dated 1988).

Holding throughout (type): cell-based
One assay deals with human platelets. Description: human platelet aggregation and serotonin release, inducers taken together. The conditions noted are these: for inhibition of aggregation and serotonin release: each inducer. As to the method:
(§1) The antiaggregatory and antisecretory activity on human platelets was determined by evaluating the in vitro aggregation and [^14 C]serotonin secretion in human platelet preparations. Blood was taken by venipuncture from normal human volunteers who were reported to be free of medication for at least 10 days before blood drawing. Venous blood samples were mixed with acid-citrate dextrose solution (9:1) and centrifuged at 120×g for 15 minutes at room temperature to obtain platelet-rich plasma, PRP, (Huzoor-Akbar et al., Biochem. Pharmacol., 30: 2013-2020, 1981). The PRP was transferred to polypropylene tubes and stored under an atmosphere of 8% CO2. The remaining blood was centrifuged at 1000×g for 10 minutes to obtain platelet-poor plasma. […] Platelet counts varied between 280,000 to 320,000 per cmm or were adjusted to 300,000 per cmm for the aggregation and secretion experiments. All studies were conducted within 2 hours after PRP recovery.
(§2) For aggregation studies, 0.5 ml of PRP was incubated with drug or vehicle (1-5 μl) for 1 minute at 37° C. before the initiation of aggregation with inducers. […] In all experiments, the minimum concentration of inducer (adenosine diphosphate ADP; epinephrine, E; 15S-hydroxy-11α,9α-epoxymethanoprosta-5Z,13E-dienoic acid, U46619; collagen; and arachidonic acid, AA) which caused maximal irreversible aggregation within each PRP preparation was used. Aggregation was monitored for 4 to 6 minutes after the addition of an inducer and data were presented as a percentage inhibition of either slope or maximal light transmittance changes in the presence of varying drug concentrations.
(§3) Secretion data were calculated as the net increase of serotonin released into the supernatant by each inducer and expressed as a percentage of the total radioactivity in platelets Mayo et al., Biochem. Pharmacol., 30: 2237-2241, 1981. The effect of compounds on serotonin release was expressed as the percentage of inhibition of the maximum release by each inducer and plotted against the log molar concentrations of each agent.

Assay [1] relates to human platelets (ADP-induced aggregation). In words: inhibition of the secondary phase of ADP-induced platelet aggregation, human platelet-rich plasma. The note with it: ADP 1-3 μM. As to the method: as §1, §2
The test system of assay [2] is human platelets (ADP-induced serotonin secretion). Description: inhibition of ADP-induced serotonin secretion, human platelet-rich plasma. The conditions noted are these: ADP 1-3 μM. As to the method:
as §1, §2, §3

In assay [3] the test system is human platelets (U46619-induced serotonin secretion). Description: inhibition of U46619-induced serotonin secretion in presence of aspirin, human platelet-rich plasma. The conditions noted are these: U46619 0.5-1.5 μM, aspirin 1 mM. As for the experimental part: as §1, §2, §3
The subject of assay [4] is human platelets (collagen-induced aggregation). In words: inhibition of collagen-induced platelet aggregation, human platelet-rich plasma. The conditions noted are these: collagen 10-100 μg/ml. As for the experimental part: as §1, §2
For assay [5], the system named is human platelets (U46619-induced aggregation). In words: inhibition of U46619-induced platelet aggregation in presence of aspirin, human platelet-rich plasma. The conditions noted are these: U46619 0.5-1.5 μM, aspirin 1 mM. As for the experimental part:
as §1, §2

Where [6] appears, read: read-out: IC50 platelet aggregation (secondary phase).
Where [7] appears, read: read-out: pIC50 platelet aggregation (secondary phase) (converted).
Where [8] appears, read: read-out: IC50 serotonin secretion.
[9] abbreviates: read-out: pIC50 serotonin secretion (converted).
Where [10] appears, read: read-out: IC50 platelet aggregation.
[11] abbreviates: read-out: pIC50 platelet aggregation (converted).

Where two headings read alike, the source gives them in different places.

On to `COc1cc(CC2NCCc3c2cc(O)c(O)c3F)cc(OC)c1OC` (centres unmarked) [Compound 5-F-TMQ, 5-fluoro-trimetoquinol], for which the “inhibition of aggregation and serotonin release” value with human platelets was “inhibitors of aggregation and serotonin release by each inducer”. For the same compound, the IC50 was 15.1 µM in assay [1] (setting [6]); 15.1 µM in assay [1] (setting [7]); 17 µM in assay [2] (setting [8]); 17 µM in assay [2] (setting [9]); 6.9 µM in assay [3] (setting [8]); 6.92 µM in assay [3] (setting [9]). The IC50 in assay [4] (setting [10]) is 51.3 µM; in assay [4] (setting [11]), 51.3 µM; in assay [5] (setting [10]) it was 7.4 µM; in assay [5] (setting [11]), 7.41 µM.

`COc1cc(CC2NCCc3cc(O)c(O)c(F)c32)cc(OC)c1OC` (centres unmarked) [Compound 8-F-TMQ, 8-fluoro-trimetoquinol]: the “inhibition of aggregation and serotonin release” value in the assay with human platelets is “inhibitors of aggregation and serotonin release by each inducer”. Further, the “potency relative to 2 as an inhibitor of human platelet activation” value in the assay with human platelets (relative to analog 2) was “about 2 fold”. Moreover, the IC50 was 6.5 µM in assay [1] (setting [6]); 6.46 µM in assay [1] (setting [7]); 6.6 µM in assay [2] (setting [8]); 6.61 µM in assay [2] (setting [9]); 4.4 µM in assay [3] (setting [8]); 4.37 µM in assay [3] (setting [9]). The IC50 was 9.8 µM in assay [4] (setting [10]), 9.77 µM in assay [4] (setting [11]), 3.9 µM in assay [5] (setting [10]) and 3.89 µM in assay [5] (setting [11]).
